{
  "source": "patent US4916118A",
  "about": "“Pharmaceutical administration systems containing chemotactic peptides” (Board of Regents, The University of Texas System, priority 1987, dated 1990)",
  "key": {"[1]": {"system": "mouse peritoneal macrophages", "assay": "In-vitro assay of macrophage mediated cytotoxicity ([125I]IdUrd radioactive release assay)", "type": "cell-based", "details": "for cpm +/- S.D.: 10^-8 M FMLP, radioactivity of remaining viable target tumor cells"}, "[2]": {"system": "mouse peritoneal macrophages", "assay": "In-vitro assay of macrophage mediated cytotoxicity ([125I]IdUrd radioactive release assay)", "type": "cell-based", "procedure": "FMLP was purchased from Sigma Chemical Co. The stock solution (10 mM) was made in methanol and stored at -70° before use. For free form use, the stock solution was diluted to concentrations between 10^-4 M and 10^-7 M with CMEM containing 5% FBS. […]\nMacrophage mediated cytotoxicity was assessed by a radioactive release assay as described in Sone S. and Fidler I. J., Cell Immunology 57, 42 (1981). Target cells in exponential growth phase were incubated for 24 h in medium supplemented with [^125 I]IdUrd (0.2 μCi/ml; specific activity, 200 mCi/mmol; New England Nuclear, Boston, Mass.). The cells then were washed 3 times with warm HBSS to remove unbound radiolabel, harvested by a short trypsinization (0.25% Difco trypsin and 0.02% EDTA for 1 min at 37°), and resuspended in CMEM containing 5% FBS. Viable cells were plated into the wells containing macrophages to achieve a population density of 2500 macrophages and 250 tumor cells per sq mm (or an initial macrophage:target cell ratio of 10/1). At this population density, normal (untreated) macrophages are not cytotoxic to neoplastic cells. No significant differences were detected in the plating efficiency (binding) of [^125 I]IdUrd-labeled target cells to control or liposome-treated macrophage populations. Radiolabeled target cells also were plated alone as an additional control group. The macrophage-target cell cultures were refed with medium 24 h after the addition of the target cells to remove all nonplated cells and then were incubated for up to 3 days at 37°. At this time, the cultures were washed twice with HBSS to remove […], and the remaining viable, adherent cells were lysed with 0.1 ml of 0.1N NaOH. The lysate was absorbed in a cotton swab and placed directly into 10×75 mm tubes; radioactivity was measured in a gamma counter. […] The cytotoxic activity of the macrophages was calculated as follows: [formula] Experimental results were analyzed for their statistical significance by Student's 2-tailed t test."}},
  "data": [
    {"smiles": "CSCC[C@H](NC=O)C(=O)N[C@@H](CC(C)C)C(=O)N[C@@H](Cc1ccccc1)C(=O)O", "note": "[Free FMLP, N-formyl-L-methionyl-L-leucyl-L-phenylalanine]", "values": [
      {"measurement": "cpm +/- S.D.", "setting": "[1]; Expt. I", "result": "2567 + 70 cpm"},
      {"measurement": "cpm +/- S.D.", "setting": "[1]; Expt. II", "result": "2441 + 32 cpm"},
      {"measurement": "activation of mouse macrophages to lyse target tumor cells", "setting": "[1]; all FMLP concentrations (10^-8 to 10^-4 M), 72 hours of co-cultivation", "result": "ineffective in rendering macrophages tumoricidal"},
      {"measurement": "cpm +/- S.D.", "setting": "[2]; 10^-4 M FMLP, Expt. I", "result": "2478 + 74 cpm"},
      {"measurement": "cpm +/- S.D.", "setting": "[2]; 10^-4 M FMLP, Expt. II", "result": "2263 + 361 cpm"},
      {"measurement": "cpm +/- S.D.", "setting": "[2]; 10^-5 M FMLP, Expt. I", "result": "2619 + 82 cpm"},
      {"measurement": "cpm +/- S.D.", "setting": "[2]; 10^-5 M FMLP, Expt. II", "result": "2455 + 106 cpm"},
      {"measurement": "cpm +/- S.D.", "setting": "[2]; 10^-6 M FMLP, Expt. I", "result": "2633 + 61 cpm"},
      {"measurement": "cpm +/- S.D.", "setting": "[2]; 10^-6 M FMLP, Expt. II", "result": "2408 + 32 cpm"},
      {"measurement": "cpm +/- S.D.", "setting": "[2]; 10^-7 M FMLP, Expt. I", "result": "2559 + 109 cpm"},
      {"measurement": "cpm +/- S.D.", "setting": "[2]; 10^-7 M FMLP, Expt. II", "result": "2298 + 178 cpm"}
    ]}
  ]
}
